Laboratory results as given in patent US7605175B2, “Inhibitors of cyclin-dependent kinases, compositions and uses related thereto” (GPC Biotech AG, priority 2001, dated 2009).

Tests used:
[1] = system: HCT-116 cells; test: Cell cycle analysis with propidium iodide (PI FACS); assay type: cell-based, human; conditions: HCT-116, 24, 48 and 72 hours
Procedure: The percentage of cells in the G1, S and G2/M phases of the cell cycle was determined by staining DNA with propidium iodide and quantifying the number of cells with a 2N or 4N DNA complement by flow cytometry. Alterations in the distribution of cells across the cell cycle in response to exposure to the Cdk inhibitors was evaluated in this marmer.
3 sets of HCT-116 cells (100,000 cells/set) were cultured in the presence of a test compound in T-25 flasks according to Table 1 below. Analysis was performed at 24, 48 and 72 hours. Adherent cells were collected by trypsinization, combined with floating cells in Falcon 12×75 flow cytometric tubes, and harvested by centrifugation. The media was decanted from the cell pellet, 100 μl of PI stain was added and the cells were incubated at 37° C. for 20-25 minutes. The cell count was preferably no greater than 2×10^6-4×10^6/ml. An equal volume (100 μl) of PI salt was then added to the cells, which were then incubated at 4° C. for 1-2 hours. The stained cells were analyzed on a Becton Dickinson FACScan flow cytometer. Samples were protected from light.

[2] = target: T1, Cdc2/cyclin B (Homo sapiens, UniProt P06493); test: Biochemical kinase assay Cdc2/cyclin B; conditions: Table 6
T1 construct: purchased
Summary of the method: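 Radiometric TCA-precipitation assay measuring [γ-32P]ATP incorporation into Histone H1 (20 μg); 50 μM ATP, 10% DMSO, Tris pH 7.5 with MgCl2 and DTT. Compounds at 1 nM to 10 μM; reaction 20 min at 30 °C, stopped with EDTA/ATP. Activity relative to DMSO control after subtracting 50 mM EDTA background.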

[3] = system: HCT-116 cells; test: Calcein AM viability assay, HCT-116; assay type: cell-based; conditions: Homo sapiens, HCT-116, plus 1 mg/ml alpha acidic glycoprotein and 45 mg/ml human serum albumin; read-out: HCT-116 IC50 Protein adjusted
Summary of the method: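 Cells plated (1,000 HCT-116 in RPMI-1640/10% FCS; 4,000 IMR90 in MEM-alpha/10% FCS), adhered overnight, then given 7 doses of compound at 0-250 nM for 72 h at 37 °C. Viability read by Calcein AM fluorescence (ex 485, em 530) after 75 min; IC50 derived.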

[4] = target: protein kinase C (mixed isozymes); test: Protein kinase C TCA precipitation assay; assay type: biochemical, rat; conditions: Table 5; read-out: PKC IC50
Procedure: Enzymes: Cdc2/cyclin B was obtained from commercial sources. Cdk2/his-cyclin Eshort was expressed in Sf9 cells. Cdk2/cyclin A, cdk4/cyclin D1, and cdk6/cyclin D2 were expressed in Sf9 cells. Protein kinase A (catalytic subunit, from bovine heart) and protein kinase C (mixed isozymes from rat brain) were obtained from commercial sources.
Protein kinase C and protein kinase A were assayed using a TCA precipitation assay with Histone H1 as a substrate. For protein kinase A, the final assay contained 50 mM Tris, 10 mM MgCl2, 1 mM dithiothreitol, pH 7.5, 12 μM adenosine triphosphate, 10% (v/v) dimethylsulfoxide (from compounds), 20 μg Histone H1, 2 μCi [γ-^32P] adenosine triphosphate, 0.2 U protein kinase A in a 100 μL assay. A protein kinase C assay contained 50 mM Tris, 10 mM MgCl2, 1 mM dithiothreitol, 0.8 mM CaCl2, pH 7.5, 5 μM adenosine triphosphate, 10% (v/v) dimethylsulfoxide (from compounds), 20 μg Histone H1, 2 μCi [γ-^32P] adenosine triphosphate, 0.01 U protein kinase C in a 50 μL assay. The assays were started by the addition of enzyme, allowed to react for 10 min at 30° C., and stopped by adding 0.4 volumes of 237 mM disodium ethylenediamine tetraacetate, 105 mM adenosine triphosphate, pH 8.0. […] The filters were washed ten times with 25% (w/v) trichloroacetic acid, and the amount of incorporated [^32P]phosphate was determined by adding 100 μl Microscint and scintillation counting.

T1 sequence (P06493 whole entry, species assumed): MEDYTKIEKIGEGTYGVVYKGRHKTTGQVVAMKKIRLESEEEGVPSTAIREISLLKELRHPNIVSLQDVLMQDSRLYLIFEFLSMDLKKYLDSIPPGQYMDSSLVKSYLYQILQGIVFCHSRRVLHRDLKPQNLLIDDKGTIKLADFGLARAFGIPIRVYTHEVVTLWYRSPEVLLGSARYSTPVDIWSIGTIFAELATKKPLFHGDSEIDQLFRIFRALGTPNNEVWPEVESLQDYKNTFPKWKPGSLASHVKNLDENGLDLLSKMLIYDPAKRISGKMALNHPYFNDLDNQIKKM
T1 sequence (P14635 whole entry partner, species assumed): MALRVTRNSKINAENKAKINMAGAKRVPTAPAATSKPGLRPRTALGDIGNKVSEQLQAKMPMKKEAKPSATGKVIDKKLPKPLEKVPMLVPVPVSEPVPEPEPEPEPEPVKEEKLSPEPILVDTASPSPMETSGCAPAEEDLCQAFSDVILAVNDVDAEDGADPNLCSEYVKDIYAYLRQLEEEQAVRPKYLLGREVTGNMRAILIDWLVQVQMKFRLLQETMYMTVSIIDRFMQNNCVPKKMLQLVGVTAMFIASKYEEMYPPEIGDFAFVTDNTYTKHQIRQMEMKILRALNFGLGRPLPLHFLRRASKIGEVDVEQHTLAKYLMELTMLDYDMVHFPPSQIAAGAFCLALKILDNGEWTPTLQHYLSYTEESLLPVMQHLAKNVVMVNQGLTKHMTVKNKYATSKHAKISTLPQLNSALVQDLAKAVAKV

Structure (SMILES)	Effect on cell cycle distribution (PI staining) [1]	IC50 [2] [nM]	IC50 [3] [nM]	IC50 [4] [nM]
CC(C)N1CCN(C(=O)COc2ccc(-c3[nH]nc4c3C(=O)c3c(NC(=O)NN5CCOCC5)cccc3-4)cc2)CC1.Cl [Compound A37]	cells are terminally arrested in G1 and G2, with evidence of apoptosis and endo-reduplication	< 100	–	–
COCCN1CCN(Cc2ccc(-c3[nH]nc4c3C(=O)c3c(NC(=O)NN5CCOCC5)cccc3-4)cc2)CC1.Cl.Cl [Compound B16, N-[3-(4-{[4-(2-methoxyethyl)piperazinyl]methyl}phenyl)-4-oxoindeno[2,3-d]pyrazol-5-yl](morpholin-4-ylamino)carboxamide dihydrochloride]	Analogous results	< 10	–	–
CC(C)c1nn(-c2c(Cl)cccc2Cl)c2nc(Cc3ccc(O)c(CN4CCN(C(C)C)CC4)c3)[nH]c(=O)c12 [Compound C]	–	–	< 1000	> 10000
